Test results reported in US5573908A, “Adrenergic receptor as a proto-oncogene” (Duke University, priority 1993, dated 1996).
Several values for one entry are separate records, joined by “and”; a condition that tells them apart may be missing. Equal entries are not always repeated.

Columns and labels:
[1] = test system: NIH 3T3 fibroblasts transfected with α1B ADR; assay: Focus formation in NIH 3T3 fibroblasts transfected with α1B-ADR c-DNA; format: cell-based; conditions: NIH 3T3 transfected with α1B ADR; 10 μM NE supplemented daily, 5% FBS (Table 1)
[2] = test system: RAT-1 fibroblasts transfected with expression vector alone; assay: Focus formation in RAT-1 fibroblasts transfected with expression vector alone; format: cell-based
Procedure: (§1) Transfection was carried out as follows: RAT-1 fibroblasts were seeded at a density of 2×10^5 cells in Dulbecco's modified Eagle's medium (DMEM) (Gibco) containing 5% fetal bovine serum (FBS) in 100 mm dishes. Cells were grown overnight, then transfected with 10 μg of DNA (expression vector alone [pZIP-NeoSV(X)1] or containing the α1B-ADR, α1B -ADR mutant [discussed in Example 3 below] or activated Ha-ras c-DNAs) by calcium phosphate precipitation (B. Cullen, Methods Enzymol. 152, 684 (1987)). The α1B -ADR used herein was the hamster α1B -ADR described in S. Cotecchia et al., Proc. Natl. Acad. Sci. USA 85, 7159-7163 (1988). After 16 hours, the DNA precipitate was removed, the cells washed and grown for 24 hours in complete medium. Cells were split 1:5, allowed to attach overnight and then cultured in DMEM with 5% FBS alone, supplemented with 10 μM norepinephrine (NE) or G418 (300 μg/ml). Dishes were supplemented with NE daily, and fed every 3 days with fresh medium.
(§2) ^1 Cells were cultured for 3 weeks in the presence or absence of 10
(§3) μM norepinephrine (NE), supplemented daily, in medium containing 5%
(§4) FBS. The number of transformed foci were scored after 4 weeks of culture.
(§5) Results represent the average duplicate determinations from two
(§6) independent experiments which agreed within 25%; nd = not determined. […]
(§7) growth, the number of foci was scored. […]

[3] = test system: NIH 3T3 fibroblasts transfected with ras c-DNA; assay: Focus formation in NIH 3T3 fibroblasts transfected with ras c-DNA; format: cell-based; conditions: NIH 3T3 transfected with ras; 10 μM NE supplemented daily, 5% FBS (Table 1)
Procedure: as §1, with “Dishes were supplemented with NE daily, and fed every 3 days with fresh medium.” left out
After transfection of plasmid DNA into RAT-1 fibroblasts, no change in phenotype or focal cell overgrowth was observed after 4 weeks in culture in the absence of added agonist (FIG. 1A). […] Agonist-induced foci represented approximately 15-25% of transfected clones with the number of G418 resistant colonies (40-60/dish) assessed in duplicate transfections. […]
FBS. The number of transformed foci were scored after 4 weeks of culture. […]
independent experiments which agreed within 25%; nd = not determined.

[4] = test system: RAT-1 fibroblast cell lines transfected with vector alone; assay: Growth curves of RAT-1 fibroblast cell lines transfected with vector alone; format: cell-based; conditions: 10 μM NE daily, 5% FBS
[5] = test system: RAT-1 fibroblasts transfected with ras c-DNA; assay: Focus formation in RAT-1 fibroblasts transfected with activated Ha-ras c-DNA; format: cell-based
Procedure: as §1, §2, §3, §4, §5, §6, §7

[6] = test system: RAT-1 fibroblast cell lines expressing the α1B -ADR; assay: cells; conditions: 600 h, read-out: final cell density (day 25) relative to control
Procedure: Growth curves of G418 selected RAT-1 fibroblast cell lines transfected with vector alone (A), or expressing the α1B -ADR (B) or α1B -ADR mutant (C) in the absence (------) or presence (---) of norepinephrine (NE). Cells were plated in 100mm dishes at a density of 5×10^5 cells per dish in DMEM containing 5% FBS. After 24 hours, half the dishes received daily supplementation with 10 μM NE, and all dishes were fed with fresh medium every 2-3 days. At each time point, cells were trypsinized and cell counts determined using an electronic particle counter (Coulter Electronics). Values represent the mean of duplicate determinations of a representative experiment, which agree within 6%.
To quantitate receptor-mediated effects on mitogenesis, basal and NE-stimulated growth rates were assessed on cell lines expressing the wild type or mutant α1B -ADRs.

[7] = test system: RAT-1 fibroblasts transfected with α1B -ADR c-DNA; assay: Focus formation in RAT-1 fibroblasts transfected with α1B-ADR c-DNA; format: cell-based
Procedure: Transfection was carried out as follows: RAT-1 fibroblasts were seeded at a density of 2×10^5 cells in Dulbecco's modified Eagle's medium (DMEM) (Gibco) containing 5% fetal bovine serum (FBS) in 100 mm dishes. […] After 16 hours, the DNA precipitate was removed, the cells washed and grown for 24 hours in complete medium. Cells were split 1:5, allowed to attach overnight and then cultured in DMEM with 5% FBS alone, supplemented with 10 μM norepinephrine (NE) or G418 (300 μg/ml). Dishes were supplemented with NE daily, and fed every 3 days with fresh medium.

[8] = test system: RAT-1 fibroblasts transfected with α1B -ADR mutant; assay: Focus formation in RAT-1 fibroblasts transfected with α1B-ADR mutant c-DNA; format: cell-based
Procedure: as §1, §2, §3, §4, §5, §6, §7

[9] = test system: NIH 3T3 fibroblasts transfected with expression vector alone; assay: Focus formation in NIH 3T3 fibroblasts transfected with expression vector alone; format: cell-based; conditions: NIH 3T3 transfected with vector alone; 10 μM NE supplemented daily, 5% FBS (Table 1)

Compound: NC[C@H](O)c1ccc(O)c(O)c1 [NE, norepinephrine]
- Foci No. +NE [1]: 85
- Foci No. +NE ([2]; RAT-1 cell lines transfected with vector alone, 10 μM NE, 3 weeks of growth, two clones (Table 2)): 0
- Foci No. +NE ([2]; RAT-1 transfected with vector alone, 10 μM NE supplemented daily, 5% FBS (Table 1)): 0
- Foci No. +NE [3]: 180
- rate of cell proliferation in the presence or absence of catecholamines [4]: no significant difference
- Foci No. +NE ([5]; RAT-1 transfected with ras, 10 μM NE supplemented daily, 5% FBS (Table 1)): 197
- Foci No. +NE ([5]; focus derived RAT-1 cell lines, ras, 10 μM NE, 3 weeks of growth, two clones (Table 2)): > 500 and 460
- fold induction at 10 µM [6]: 1.9
- Agonist-induced foci as share of transfected clones ([7]; RAT-1, relative to number of G418 resistant colonies (40-60/dish)): 15-25%
- Foci No. +NE ([7]; RAT-1 transfected with α1B ADR, 10 μM NE supplemented daily, 5% FBS, initially transfected cells (Table 1)): 8
- Foci No. +NE ([7]; focus derived RAT-1 cell lines, α1B ADR, 10 μM NE, 3 weeks of growth, two clones (Table 2)): 75 and 80
- Foci No. +NE ([8]; RAT-1 transfected with α1B ADR mutant, 10 μM NE supplemented daily, 5% FBS, initially transfected cells (Table 1)): 11
- Foci No. +NE ([8]; focus derived RAT-1 cell lines, α1B ADR mutant, 10 μM NE, 3 weeks of growth, two clones (Table 2)): > 500
- Foci No. +NE [9]: 12
